# US20040235965A1, “Utilization of rutins and aescins in the treatment of circulatory disturbances of the ear” (priority 2001, published 2004)
# Legend:
# Format in all cases: in vivo, human
# [1] = test system: patient with tinnitus and vertigo attacks; experiment: Frequency of vertigo attacks in patient case example 3; conditions: Case 3; 2250 mg troxerutin orally daily, 4-week therapy
# Protocol: (§1) patient with tinnitus and vertigo attacks for 4 months.
# (§2) A 4-week therapy with 2250 mg of troxerutin orally daily followed. Under this, hearing improved in the 1st week by 10 dB in the low frequency range and by 5 dB in the high frequency range. There was no change in the frequency of vertigo attacks (1 to 4 times within 2 days).
# [2] = test system: patient with hearing impairment; experiment: Pure-tone threshold audiometry in patient case examples under oral therapy; conditions: 2250 mg troxerutin orally daily
# Description: as §1
# Moderate hearing loss existed which was confirmed by pure-tone threshold audiometry to be a loss of hearing especially in the low and high frequency ranges. The underlying disease present was insulin-dependent diabetes mellitus. The findings existed for 4 months with the tendency for progressive worsening. […]
# [3] = test system: patient with tinnitus and vertigo attacks; experiment: Tinnitus pattern in patient case example 3; conditions: Case 3; 2250 mg troxerutin orally daily; 4th week of treatment
# Protocol: as §1, §2
substance,measurement,setting,value
"3′,4′,7-tris-O-(β-hydroxyethyl)rutin [troxerutin]",frequency of vertigo attacks,[1],no change
same,"improvement in the audiogram, high-frequency range, right ear","[2]; Case 1, 4-week therapy",10 dB
same,"improvement of audiogram, high frequency range","[2]; Case 2, after 1 week",minor improvement
same,"improvement of audiogram, low frequency range","[2]; Case 2, after 1 week",10 dB
same,"improvement of hearing, low frequency range","[2]; Case 3, moderate hearing loss, 1st week",10 dB
same,"improvement of hearing, high frequency range","[2]; Case 3, 1st week",5 dB
same,"improvement of hearing, high frequency range","[2]; Case 4, week 3",marginally
same,"improvement of hearing, low frequency range","[2]; Case 4, week 3",10 dB
same,tinnitus pattern,[3],intermittent with relatively frequent absences which lasted for hours
